From ChEMBL document CHEMBL1201862, “PubChem BioAssay data set” (2004)
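Compound exposure: 48 hours, 5 concentrations, 96-well plates. The concentration for 50% growth inhibition is given as GI50.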 Activity calls are given as the source filed them. Rule as the data show it: active = GI50 up to about 1.1 µM and inactive = higher.

What was measured:
Experiment in all cases: NCI-60 cell line screen, 48 h
[1] = test system: UO-31
[2] = test system: SK-OV-3
[3] = test system: NCI-H23
[4] = test system: CCRF-CEM
[5] = test system: CAKI-1
[6] = test system: TK-10
[7] = test system: A549
[8] = test system: HOP-92
[9] = test system: Hs-578T
[10] = test system: HOP-62
[11] = test system: LOX IMVI
[12] = test system: UACC-62
[13] = test system: NCI-H226
[14] = test system: T47D
[15] = test system: SK-MEL-28
[16] = test system: UACC-257
[17] = test system: A498
[18] = test system: HCC 2998
[19] = test system: M14
[20] = test system: SN12C

Measured: GI50

COc1ccc(CC(N)c2ccc(OC)cc2)cc1 (stereo not given)
inactive: [1] 90.6 µM | [2] 71.4 µM | [3] > 100 µM | [4] 70.5 µM | [5] > 100 µM | [6] > 100 µM | [7] > 100 µM | [8] 29.4 µM | [9] 43.9 µM | [10] > 100 µM | [11] 57.5 µM | [12] 71.3 µM | [13] 76.2 µM | [14] 46.3 µM | [15] 38.4 µM | [16] 42 µM | [17] > 100 µM | [18] 18.3 µM | [19] 48 µM | [20] > 100 µM

CCC(C)C1(O)OC2CC3(C)OC(=CC3=O)/C(C)=C\C3OC(=O)C1(C)C32 (stereo not given)
inactive: [1] 17.8 µM | [2] 37.6 µM | [3] 5.53 µM | [4] 4.83 µM | [5] 14.4 µM | [6] 21 µM | [7] 24.8 µM | [8] 8.75 µM | [9] 30.5 µM | [10] 22.8 µM | [11] 14.7 µM | [12] 14.3 µM | [13] 25.9 µM | [14] 15 µM | [15] 14.3 µM | [16] 7.01 µM | [17] 25.2 µM | [18] 15.2 µM | [19] 21.1 µM | [20] 11.8 µM

CN(O)C(=O)c1cccc(Cl)c1
inactive: [1] > 100 µM | [2] > 100 µM | [3] > 100 µM | [4] 60 µM | [5] > 100 µM | [6] > 100 µM | [7] > 100 µM | [8] > 100 µM | [9] > 100 µM | [10] > 100 µM | [11] > 100 µM | [12] > 100 µM | [13] > 100 µM | [14] > 100 µM | [15] > 100 µM | [16] > 100 µM | [17] > 100 µM | [18] > 100 µM | [19] > 100 µM | [20] > 100 µM

O=C(NCCCNC(=O)c1ccc2c(O)c(O)ccc2c1)c1ccc2c(O)c(O)ccc2c1
inactive: [1] 26.6 µM | [2] > 100 µM | [3] 22.1 µM | [4] 5.18 µM | [5] > 63 µM | [6] 43.8 µM | [7] 32.3 µM | [8] 31 µM | [9] 18.5 µM | [10] 21.2 µM | [11] 9.57 µM | [12] 29.9 µM | [13] 63 µM | [14] > 100 µM | [15] 97.9 µM | [16] 21.3 µM | [17] > 48.3 µM | [18] > 60.4 µM | [19] 26.6 µM | [20] 22.4 µM

C[C@@](O)(/C=C/[C@H]1CC=CC(=O)O1)[C@@H](C[C@@H](O)\C=C/C=C\C=C\CO)OP(=O)(O)O [FOSTRIECIN SODIUM]
inactive: [1] 11 µM | [2] 10.2 µM | [3] 10.2 µM | [4] 2.12 µM | [5] 1.81 µM | [6] 12.8 µM | [7] 9.66 µM | [8] 2.27 µM | [9] 5.51 µM | [10] 4.9 µM | [11] 2.16 µM | [12] 3.77 µM | [13] 7.4 µM | [14] 48.1 µM | [15] 7.28 µM | [16] 4.94 µM | [17] 23.9 µM | [18] 4.28 µM | [20] 9.33 µM
active: [19] 0.634 µM

O=C(CCc1ccccc1)ON1C(=S)NC(c2ccccc2)(c2ccccc2)C1=S
inactive: [1] 43.4 µM | [2] 35.6 µM | [3] 30.3 µM | [4] 21.9 µM | [5] 33.7 µM | [6] 54.5 µM | [7] 37.5 µM | [8] 65 µM | [9] 31.1 µM | [10] 30.1 µM | [11] 21.1 µM | [12] 33.9 µM | [13] 22 µM | [14] 41.6 µM | [15] > 100 µM | [16] 36.5 µM | [17] > 100 µM | [18] 29.4 µM | [19] 42.1 µM | [20] 44.8 µM
